Structures can show the parent of a compound that is named as a salt. Where two headings read alike, the source gives them in different places.
How the values were obtained:
[1] = biological target: T1, hA3AR (Homo sapiens (Human), UniProt P0DMS8); test: FCM competitive binding in whole CHO cells using MRS5449 as tracer; conditions: whole CHO cells expressing hA3AR; 5 nM MRS5449 tracer; 90 min at 37° C.
Procedure: Total binding was measured in the absence of the competitor.
(§1) At the end of each time interval, the medium was removed and cells were washed three times with ice-cold DPBS. After washing, 1 ml 0.2% EDTA solution was added to each well, and cells were incubated at 37° C. for 7 min. Following cell detachment, 1 ml medium was added to each well to neutralize the EDTA. The cell suspensions were transferred to polystyrene round-bottom BD Falcon tubes (BD, Franklin Lakes, N.J.) and centrifuged for 5 min at 23° C. and 400×g. After centrifugation, the supernatant was discarded, and cells were washed with 3 ml PBS and centrifuged again at 23° C. and 400×g for 5 min. After discarding the supernatant, cells were suspended in 0.5 ml PBS and analyzed by FCM.
The intensity of fluorescence emission of each sample was measured by using FCM. […] Samples were maintained in the dark during the analysis to avoid photobleaching. MFIs were obtained in the FL-1 channel in log mode. Ten thousand events were analyzed per sample.
Data analysis was performed with the Prism 5 (GraphPad, San Diego Calif.) software. The mean autofluorescence of CHO cells was measured in the absence of the fluorescent ligand.

[2] = biological target: T1, hA3AR; conditions: Table 2; cell membrane preparations using [125I]-AB-MECA; reported literature values; read-out: hA3AR radioligand binding, Ki; cited from earlier work
[3] = biological target: A3AR (Homo sapiens (Human), UniProt P0DMS8); test: Cyclic AMP accumulation assay, antagonism of Cl-IB-MECA (Schild analysis); assay type: cell-based; conditions: inhibition of forskolin-stimulated cyclic AMP by Cl-IB-MECA in CHO cells expressing the A3AR
Procedure: CHO cells stably expressing the hA3AR were seeded in 24-well plates and incubated at 37° C. overnight. The medium was removed the following day and replaced with DMEM containing 50 mM HEPES, 10 μM rolipram, 3 units/ml adenosine deaminase (Worthington Biochemical Corp., Lakewood, N.J.), and increasing concentrations of agonists and incubated for […]. Forskolin (10 μM) was added and incubated for an additional 15 min. The medium was removed, and the cells were lysed with 200 μL of 0.1 M HCl. 100 μl of the HCl solution was used in the Sigma Direct cAMP Enzyme Immunoassay following the instructions provided with the kit. The OD values were measured with a SpectraMax M5 Microplate reader (Molecular Devices, Sunnyvale, Calif.) at 405 nm.

[4] = biological target: T1, hA3AR; test: Fluorescent ligand binding by FCM in intact CHO cells expressing the hA3AR (preliminary, saturation, kinetics)
Procedure: In preliminary binding experiments of compounds 1-6 and MRS5449 were incubated with CHO cells expressing the hA3AR for 1 h at 37° C. in an atmosphere containing 5% CO2. The concentrations used were incubated with 1.5 μM 1, 5 μM 2, 1.5 μM 3, 10 μM 4, 20 μM 5, 15 μM 6, or 10 nM MRS5449. For further binding experiments with MRS5449, control CHO cells (CHO cells without heterologous receptor expression) and CHO cells expressing hA3AR were incubated with 10 nM MRS5449 for 3 h.
In saturation binding experiments, CHO cells expressing the hA3AR were incubated with concentrations of MRS5449 ranging from 2.5 nM to 250 nM for 1 h. To study binding kinetics of MRS5449, CHO cells expressing the hA3AR were incubated with 10 nM MRS5449 for different time intervals from 5 min to 3 h. The association and dissociation rate was measured as follows: 10 nM MRS5449 was added to CHO cells expressing the A3AR and measured total binding at different time intervals. After 90 min, dissociation was initiated by adding 10 μM of non-fluorescent A3AR antagonist MRS1220 and then measured the dissociation at different time intervals.
as §1
The mean fluorescence intensity (MFI) values of the standard particles were recorded under optimized instrument setting and converted into MESF values using the QuickCal program v. 2.3 (Bangs Laboratories, Inc., Fishers, Ind.). MFIs of receptor-bound fluorescent small molecules in this study were measured under exactly the same conditions and the assigned MESF values were extrapolated from the calibration curve.
(§2) The intensity of fluorescence emission of each sample was measured by using FCM. Cell suspensions were vortexed briefly before analysis on a Becton and Dickinson FACSCalibur flow cytometer (BD, Franklin Lakes, N.J.) with excitation at 488 nm. Samples were maintained in the dark during the analysis to avoid photobleaching. MFIs were obtained in the FL-1 channel in log mode. Ten thousand events were analyzed per sample. Data were collected using Cell Quest Pro software (BD, Franklin Lakes, N.J.) and analyzed by Cyflogic v. 1.2.1 software (CyFlo, Ltd., Turku, Finland).
Data analysis was performed with the Prism 5 (GraphPad, San Diego Calif.) software. The mean autofluorescence of CHO cells was measured in the absence of the fluorescent ligand. The mean fluorescence in the presence of fluorescent ligand was corrected by subtracting this value; Wood, J C S, Curr Protoc Cytom 2009; 1.4.1-1.4.14.

[5] = biological target: hA2AAR (Homo sapiens (Human), UniProt P29274); test: Radioligand membrane binding assay at hA2A AR ([3H]CGS21680); conditions: Table 1; HEK293 cells expressing hA2AAR; [3H]CGS21680; read-out: A2A Ki
Procedure: (§3) For cell cultures used in radioligand binding assays, after harvest and homogenization, the cells were centrifuged at 200×g for 10 min, and the pellet was re-suspended in 50 mM Tris-HCl buffer (pH 7.5), containing 10 mM MgCl2. The suspension was homogenized with an electric homogenizer for 10 s and was then re-centrifuged at 20,000×g for 20 min at 4° C. The resultant membrane pellets were resuspended in buffer in the presence of 3 units/ml adenosine deaminase, and the suspension was stored at −80° C. until the binding experiments. The protein concentration was measured using the Bradford assay. Radioligand membrane binding assays

[6] = biological target: A2AAR (Homo sapiens (Human), UniProt P29274); test: FCM binding of fluorescent ligand to HEK cells expressing the A2AAR
Procedure: (§4) Chinese hamster ovary (CHO) cells without heterologous AR expression were grown in DMEM/F12 (1:1) medium with 10% FBS, 2 mM L-glutamine, 50 U/ml penicillin/streptomycin. CHO cells expressing the A1 or A3 AR and HEK293 cells expressing the A2A AR were grown in the same medium but in the presence of 500 μg/ml hygromycin B and 800 μg/ml of G418, respectively. Cells, used for FCM analysis, were grown in 6-well plates (approximately 400,000 cells/well) and incubated at 37° C. for 24 h in the presence of 5% CO2. When confluency of the cells was reached 80% (approximately 10^6 cells/well), medium was replaced with fresh medium and MRS5449 was added in the presence or absence of competitive antagonists, and cells were processed for FCM.
as §2

[7] = biological target: A1AR (Homo sapiens (Human), UniProt P30542); test: FCM binding of fluorescent ligand to CHO cells expressing the A1AR
Procedure: as §4, §2

[8] = biological target: T1, hA3AR; test: Radioligand membrane binding assay at hA3AR ([125I]I-AB-MECA)
Procedure: as §3

[9] = biological target: hA1 AR (Homo sapiens (Human), UniProt P30542); test: Radioligand membrane binding assay at hA1 AR ([3H]R-PIA); conditions: Table 1; CHO cells expressing hA1AR; agonist radioligand [3H]R-PIA; read-out: A1 Ki
Procedure: as §3

T1 sequence (P0DMS8 whole entry): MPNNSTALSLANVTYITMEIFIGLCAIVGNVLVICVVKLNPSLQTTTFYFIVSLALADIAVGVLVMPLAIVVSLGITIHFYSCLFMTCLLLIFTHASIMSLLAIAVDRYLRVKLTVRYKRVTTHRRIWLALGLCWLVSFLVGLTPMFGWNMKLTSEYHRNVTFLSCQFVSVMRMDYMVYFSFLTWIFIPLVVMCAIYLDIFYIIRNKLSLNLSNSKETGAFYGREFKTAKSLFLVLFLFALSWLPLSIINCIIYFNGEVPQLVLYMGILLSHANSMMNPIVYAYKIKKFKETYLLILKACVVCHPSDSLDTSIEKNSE
Chain of A3AR (P0DMS8 whole entry): as above
Chain of hA1 AR (P30542 whole entry): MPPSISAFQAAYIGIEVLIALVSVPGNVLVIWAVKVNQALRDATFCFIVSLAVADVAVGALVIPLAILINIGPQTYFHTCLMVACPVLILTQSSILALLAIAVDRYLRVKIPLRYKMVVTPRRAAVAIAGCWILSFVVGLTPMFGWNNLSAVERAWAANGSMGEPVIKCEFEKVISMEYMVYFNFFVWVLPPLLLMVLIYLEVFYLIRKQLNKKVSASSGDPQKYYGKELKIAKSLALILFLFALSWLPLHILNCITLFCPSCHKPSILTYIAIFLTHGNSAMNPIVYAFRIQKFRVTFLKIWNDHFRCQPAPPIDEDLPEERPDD
Chain of A1AR (P30542 whole entry): as above
Chain of A2AAR (P29274 whole entry): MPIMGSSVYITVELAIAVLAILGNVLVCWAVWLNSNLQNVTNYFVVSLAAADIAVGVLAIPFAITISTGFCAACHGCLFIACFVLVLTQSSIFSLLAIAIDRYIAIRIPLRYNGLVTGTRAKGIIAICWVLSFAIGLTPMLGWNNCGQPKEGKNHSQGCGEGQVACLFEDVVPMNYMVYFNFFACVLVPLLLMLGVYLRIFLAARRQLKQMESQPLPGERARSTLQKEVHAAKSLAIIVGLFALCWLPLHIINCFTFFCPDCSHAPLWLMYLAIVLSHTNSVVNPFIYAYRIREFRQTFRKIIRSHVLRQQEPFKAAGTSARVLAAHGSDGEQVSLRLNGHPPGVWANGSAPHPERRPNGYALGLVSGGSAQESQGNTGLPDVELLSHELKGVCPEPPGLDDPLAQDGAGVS
Chain of hA2AAR (P29274 whole entry): as above

Molecule | Ki [1] [nM] | Ki [2] [nM] | Kb [3] [nM] | t1/2 for association ([4]; 10 nM MRS5449, CHO cells expressing hA3AR) [min] | Kd determined through association and dissociation kinetic experiments ([4]; 10 nM MRS5449, dissociation initiated after 90 min with 10 μM MRS1220) [nM] | Nonspecific binding, % of total binding ([4]; 10 nM MRS5449, with 10 μM MRS1220 or 10 μM Cl-IB-MECA or in control CHO cells) | Kd ([4]; FCM saturation binding, […] to 250 nM, nonspecific with 10 μM MRS1220, read-out: Kd (equilibrium binding constant, saturation binding)) [nM] | fluorescence emission (MFI) of cell-bound ligand ([4]; preliminary FCM experiments, hA3AR CHO cells, 1 h at 37° C., concentration about two times Ki) | Ki [5] [nM] | binding to HEK cells expressing the A2AAR compared with binding to the A3AR (expressed as 100%) [6] [%] | binding to CHO cells expressing the A1AR compared with binding to the A3AR (expressed as 100%) [7] [%] | Ki ([8]; Table 1, CHO cells expressing hA3AR, [125I]I-AB-MECA, read-out: A3 Ki) [nM] | selectivity for the A3AR ([8]; versus hA1 and hA2AARs, radioligand binding Ki) | Ki [9] [nM]
CCC1CN2C(=O)N(C)c3nc(-c4cc(Cl)cc(Cl)c4Cl)[nH]c3C2=N1 (centres unmarked) [PSB-10, 8-ethyl-1,4,7,8-tetrahydro-4-methyl-2-(2,3,5-trichlorophenyl)-5H-imidazo[2,1-i]purin-5-one monohydrochloride] | 9.54 ± 2.2 | 0.441 | – | – | – | – | – | – | – | – | – | – | – | –
2-(6-Amino-3-iminio-4,5-disulfonato-3H-xanthen-9-yl)-5-((6-(4-(4-((9-chloro-2-(furan-2-yl)-[1,2,4]triazolo[1,5-c]quinazolin-5-yl)amino)-4-oxobutyl)-1H-1,2,3-triazol-1-yl)hexyl)carbamoyl)benzoate [Compound 9] | – | – | 4.8 | 53 | 6.65 ± 0.55 | less than 1% | 5.15 ± 1.11 | sufficiently high MFI | 73 | 0.5 | 0.3 | 6.4 | over 10 fold | 87
